Data published in US20260109690A1, “HDAC6 INHIBITORS AND METHOD OF THEIR USE” (Baerenkraft Therapeutics, LLC., priority 2024, published 2026).

Experiments:
HDAC5 = HDAC5 (Homo sapiens, UniProt Q9UQL6); assay: HDAC selectivity panel: HDAC5; assay type: biochemical
[1] = test system: B6SJL.SOD1-G93A transgenic mouse model of amyotrophic lateral sclerosis; assay: ALS mouse model: neurological scoring; assay type: in vivo, mice; details: scale of 4-0
Protocol: At week 9, animals were treated either with vehicle or compound I-8 per orally Q.D. Animals were scored (twice in a week until week 12 and every day thereafter until termination) for motor impairment using Vercelli neurological scoring system at the scale of 4-0. Animals were subjected to different tests for motor coordination and muscle strength assessment once in two weeks.
Animals were scored for motor deficits using the scoring system: • 4—Normal/no sign of motor dysfunction • 3—Presence of hindlimb tremors when suspended by tail • 2—Presence of gait abnormalities • […]—Dragging at least one hindlimb • Absence of right reflex within 30 seconds
Animals were scored twice a week from initiation of treatment until week 12 and everyday thereafter until termination.

HDAC11 = biological target: T1, HDAC11 (Homo sapiens, UniProt Q96DB2); assay: HDAC selectivity panel: HDAC11; assay type: biochemical
T1 sequence (Q96DB2 1-347): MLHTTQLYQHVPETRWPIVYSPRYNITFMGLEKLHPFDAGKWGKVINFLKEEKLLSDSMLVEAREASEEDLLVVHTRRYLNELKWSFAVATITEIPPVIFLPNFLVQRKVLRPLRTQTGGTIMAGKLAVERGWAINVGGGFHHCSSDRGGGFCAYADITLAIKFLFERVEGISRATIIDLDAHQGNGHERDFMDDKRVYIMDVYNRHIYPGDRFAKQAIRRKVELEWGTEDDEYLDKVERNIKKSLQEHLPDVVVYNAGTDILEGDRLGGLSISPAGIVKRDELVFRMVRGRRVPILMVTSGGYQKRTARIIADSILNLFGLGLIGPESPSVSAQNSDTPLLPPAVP

[2] = ALS mouse model: clinical signs & mortality; assay type: in vivo; details: G4 30 mg/kg (50 mg/kg from day 34) p.o. QD; SOD1-G93A mice
Protocol: Male mice and age-matched control mice were procured. All animals were quarantine for 7 days and acclimatized for one day prior to experiment initiation. During this period, the animals were observed daily for clinical signs.
Mice were weighed and randomized into different groups and age matched control groups were kept as such. Test compound I-8 was freshly formulated and administered to the respective animals of each group as per body weight. Animals in G1 and G2 were administered with vehicle. G3 and G4 group animals were dosed with compound I-8 at the dose of 15 mg/kg and 30 mg/kg respectively, per orally; Q.D. G4 animals were administered 30 mg/kg dose until day 34 and 50 mg/kg from day 35 onwards.
Cage-side observations were made to detect any changes and general activity of the animals. After dose administration, all the animals were observed carefully for treatment related clinical signs, including morbidity and mortality.

[3] = test system: acetyl-α-tubulin in SH-SY5Y neuroblastoma cells; assay: ICC dose response of acetylated alpha-tubulin in SH-SY5Y neuroblastoma cells; assay type: cell-based; details: 24-hour treatment
Protocol: Cell Seeding: Seeded at 2,000 cells/well in 384-well plates 24-hours prior to compound treatment
Compound Treatment: 24-hour
HDAC6 inhibitor compounds tested (1 control and 6 experimental)
9-point dose-response curves for all compounds, starting at 30 μM with 3-fold serial dilutions
4 technical replicate wells per condition tested
Cells were seeded in 90 μL media. 10 μL of 10× compound solutions added to 90 μL media for 24-hours
Fixation: 4% PFA for 15 minutes (after removing all media and washing with DPBS+0.1% Tween-20)
Permeabilization: 0.1% Triton X-100 for 20 minutes
Primary antibody: acetyl-α-tubulin (Lys40/D20G3; Cell Signaling Technologies, #5335S) 1:1000 dilution in DPBS+5% goat serum+0.1% Tween-20, 1 hour at room temp on orbital shaker
Secondary antibody: Goat anti-Rabbit IgG (H+L) Highly Cross-Adsorbed Secondary Antibody, Alexa Fluor™ Plus 488, Catalog #A32731, 1:1000 dilution+Hoechst 33342, 1:10,000 dilution in DPBS+5% goat serum+0.1% Tween-20, 1 hour at room temp on orbital shaker
High-content imaging system: Image Xpress Micro Confocal from Molecular Devices […]
Integrated fluorescence intensity of acetyl-α-tubulin was calculated using an automated image-analysis algorithm in Meta Xpress software
Average intensity per cell was calculated by dividing the integrated fluorescence intensity by the number of nuclei. […]

[4] = test system: B6SJL.SOD1-G93A transgenic mouse model of amyotrophic lateral sclerosis; assay: Pre-clinical ALS mouse model efficacy: motor behavior; assay type: in vivo, mice; details: both doses (G3 and G4), week 10 until week 16
Protocol: Effect of test compound I-8 in Cyagen, male B6SJL.SOD1-G93A 9-week-old transgenic mouse model of amyotrophic lateral sclerosis
Compound I-8 effect was evaluated in Cyagen, Male B6SJL.SOD1-G93A 9-week-old mice, an animal model of amyotrophic lateral sclerosis.

HDAC1 = HDAC1 (Homo sapiens, UniProt Q13547); assay: HDAC selectivity panel: HDAC1; assay type: biochemical
Chain of HDAC1 (Q13547 whole entry, species assumed): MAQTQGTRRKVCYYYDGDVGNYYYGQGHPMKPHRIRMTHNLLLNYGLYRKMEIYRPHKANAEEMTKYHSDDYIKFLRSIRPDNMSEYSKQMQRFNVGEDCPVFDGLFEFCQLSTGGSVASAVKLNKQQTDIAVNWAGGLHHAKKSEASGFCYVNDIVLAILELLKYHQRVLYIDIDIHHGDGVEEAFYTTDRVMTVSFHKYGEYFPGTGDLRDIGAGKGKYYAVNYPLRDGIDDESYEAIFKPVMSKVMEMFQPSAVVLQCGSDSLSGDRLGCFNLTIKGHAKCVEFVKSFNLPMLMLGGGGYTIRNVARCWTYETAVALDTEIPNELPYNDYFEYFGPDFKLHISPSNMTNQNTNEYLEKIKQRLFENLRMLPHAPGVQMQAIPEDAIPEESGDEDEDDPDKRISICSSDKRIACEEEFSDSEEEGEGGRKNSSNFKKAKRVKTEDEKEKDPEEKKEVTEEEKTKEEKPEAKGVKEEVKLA

[5] = test system: B6SJL.SOD1-G93A transgenic mouse model of amyotrophic lateral sclerosis; assay: ALS mouse model: rotarod test; assay type: in vivo, mice
Protocol: The Rotarod test was used for motor coordination assessment in mice. Animals were accustomed to the rotarod at 10 rpm for 300 s followed by training for 2 days at accelerated rpm (4-40 for 300 s) with 15 minutes inter trial interval. On the day of the test, animals were subjected to rotarod test at 4-40 rpm for 300 s with 15 minutes inter trial interval. During the training and test, the latency to fall off the rod was recorded. A total of 3 trials were recorded, data was averaged and analyzed.
Note: Behavioral tests were performed once in two weeks, i.e. at week 10, 12, 14 and 16.

[6] = Mice PK studies of compound I-16; assay type: in vivo

Chain of HDAC5 (Q9UQL6 whole entry, species assumed): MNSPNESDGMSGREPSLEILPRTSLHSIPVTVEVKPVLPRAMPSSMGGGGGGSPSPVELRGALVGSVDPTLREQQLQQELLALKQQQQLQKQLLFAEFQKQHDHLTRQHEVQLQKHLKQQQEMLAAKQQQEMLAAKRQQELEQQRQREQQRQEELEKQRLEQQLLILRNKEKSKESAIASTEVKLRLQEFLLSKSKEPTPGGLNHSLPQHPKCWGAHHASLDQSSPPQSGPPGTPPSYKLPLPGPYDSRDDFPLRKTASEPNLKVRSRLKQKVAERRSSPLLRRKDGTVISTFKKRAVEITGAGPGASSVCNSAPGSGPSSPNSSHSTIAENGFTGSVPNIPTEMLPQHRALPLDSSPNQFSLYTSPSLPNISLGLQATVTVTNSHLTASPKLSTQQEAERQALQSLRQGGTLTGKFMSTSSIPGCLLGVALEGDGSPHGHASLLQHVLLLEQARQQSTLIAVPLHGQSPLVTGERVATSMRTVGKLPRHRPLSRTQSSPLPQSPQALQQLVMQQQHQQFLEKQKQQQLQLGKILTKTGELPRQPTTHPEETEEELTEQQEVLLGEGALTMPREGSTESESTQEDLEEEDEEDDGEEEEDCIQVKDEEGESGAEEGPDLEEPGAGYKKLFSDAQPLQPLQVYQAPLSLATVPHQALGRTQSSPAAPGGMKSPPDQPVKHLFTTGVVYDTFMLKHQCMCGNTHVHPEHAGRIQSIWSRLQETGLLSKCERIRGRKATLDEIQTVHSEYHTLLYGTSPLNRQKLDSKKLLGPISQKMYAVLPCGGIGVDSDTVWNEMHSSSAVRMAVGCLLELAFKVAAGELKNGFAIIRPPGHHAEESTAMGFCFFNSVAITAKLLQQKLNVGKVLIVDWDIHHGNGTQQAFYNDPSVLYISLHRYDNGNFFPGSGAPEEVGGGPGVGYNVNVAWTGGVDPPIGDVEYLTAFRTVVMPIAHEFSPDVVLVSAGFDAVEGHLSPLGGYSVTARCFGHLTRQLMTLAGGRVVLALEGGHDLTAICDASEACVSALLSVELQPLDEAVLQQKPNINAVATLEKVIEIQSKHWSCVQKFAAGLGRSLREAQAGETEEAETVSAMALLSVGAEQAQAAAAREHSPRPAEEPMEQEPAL

## CC1CN(Cc2ccc(Nc3nccc(-c4ccc(C(=O)NO)cc4)n3)cc2F)CCO1 (racemic) [Compound I-8, 4-(2-((3-fluoro-4-((2-methylmorpholino)methyl)phenyl)amino)pyrimidin-4-yl)-N-hydroxybenzamide]
HDAC5
  IC50: 7770 nM
[1]; G3 15 mg/kg p.o. QD, Day 1
  Neurological scoring: 4 ± 0
[1]; G3 15 mg/kg p.o. QD, Day 7
  Neurological scoring: 4 ± 0
[1]; G3 15 mg/kg p.o. QD, Day 13
  Neurological scoring: 3.89 ± 0.11
[1]; G3 15 mg/kg p.o. QD, Day 21
  Neurological scoring: 3.44 ± 0.18
[1]; G3 15 mg/kg p.o. QD, Day 28
  Neurological scoring: 3.11 ± 0.26
[1]; G3 15 mg/kg p.o. QD, Day 35
  Neurological scoring: 2.22 ± 0.22
[1]; G3 15 mg/kg p.o. QD, Day 42
  Neurological scoring: 2.11 ± 0.20
[1]; G3 15 mg/kg p.o. QD, Day 49
  Neurological scoring: 1.89 ± 0.20
[1]; G3 15 mg/kg p.o. QD, Day 52
  Neurological scoring: 1.56 ± 0.29
[1]; G4 30 mg/kg (50 mg/kg from day 34) p.o. QD, Day 1
  Neurological scoring: 4 ± 0
[1]; G4 30 mg/kg (50 mg/kg from day 34) p.o. QD, Day 7
  Neurological scoring: 4 ± 0
[1]; G4 30 mg/kg (50 mg/kg from day 34) p.o. QD, Day 13
  Neurological scoring: 3.75 ± 0.16
[1]; G4 30 mg/kg (50 mg/kg from day 34) p.o. QD, Day 21
  Neurological scoring: 3.5 ± 0.19
[1]; G4 30 mg/kg (50 mg/kg from day 34) p.o. QD, Day 28
  Neurological scoring: 3 ± 0.27
[1]; G4 30 mg/kg (50 mg/kg from day 34) p.o. QD, Day 35
  Neurological scoring: 2.25 ± 0.25
[1]; G4 30 mg/kg (50 mg/kg from day 34) p.o. QD, Day 42
  Neurological scoring: 2.13 ± 0.23
[1]; G4 30 mg/kg (50 mg/kg from day 34) p.o. QD, Day 49
  Neurological scoring: 1.88 ± 0.30
[1]; G4 30 mg/kg (50 mg/kg from day 34) p.o. QD, Day 52 (n = 6-8)
  Neurological scoring: 2 ± 0.26
HDAC11
  IC50: 416 nM
[2]
  mortality: two mortalities
[3]
  increase in acetyl-α-tubulin (ICC): induce acetylation of α-tubulin in SH-SY5Y neuroblastoma cells in a dose-dependent manner
[4]
  motor behavior compared to disease control group: Improvement was observed in motor behavior
HDAC1
  IC50: 1180 nM
[5]; G3 15 mg/kg p.o. QD, Week 10
  Rotarod Test latency to fall: 137.59 ± 15.62 s
[5]; G3 15 mg/kg p.o. QD, Week 12
  Rotarod Test latency to fall: 119.19 ± 18.07 s
[5]; G3 15 mg/kg p.o. QD, Week 14
  Rotarod Test latency to fall: 88.63 ± 10.57 s
[5]; G3 15 mg/kg p.o. QD, Week 16
  Rotarod Test latency to fall: 34.04 ± 12.74 s
[5]; G4 30 mg/kg (50 mg/kg from day 34) p.o. QD, Week 10
  Rotarod Test latency to fall: 140 ± 13.47 s
[5]; G4 30 mg/kg (50 mg/kg from day 34) p.o. QD, Week 12
  Rotarod Test latency to fall: 120.58 ± 13.17 s
[5]; G4 30 mg/kg (50 mg/kg from day 34) p.o. QD, Week 14
  Rotarod Test latency to fall: 86 ± 16.17 s
[5]; G4 30 mg/kg (50 mg/kg from day 34) p.o. QD, Week 16
  Rotarod Test latency to fall: 39.79 ± 20.43 s

## C[C@@H]1CN(Cc2ccc(Nc3nccc(-c4ccc(C(=O)NO)cc4)n3)cc2F)CCO1 [Compound I-16, (R)-4-(2-((3-fluoro-4-((2-methylmorpholino)methyl)phenyl)amino)pyrimidin-4-yl)-N-hydroxybenzamide]
[6]
  oral and brain uptake: promising oral, and brain up take
